Each structure is given as a SMILES string.

The nature of data set [1]: The retention time in min (35 uM). Type of data set: ADME.
The nature of data set [2]: The retention time in min (40 uM). Type of data set: ADME.
Data set [3] is described as follows: Micelle/water partition coefficient. The class given is ADME. As to conditions: buffer.
A short description of data set [4]: The retention time in min (25 uM). The class given is ADME.
Data set [5] in a line: The retention time in min (30 uM). The class given is ADME.
Data set [6] in a line: Inhibition of alphaIIb-beta3 integrin.
The nature of data set [7]: Inhibition of binding to fibrinogen receptor.
The target in data set [8] is T1, Integrin alpha-IIb/beta-3 (Homo sapiens, UniProt P05106+P08514). Briefly: Inhibition of binding to integrin alphaIIb-beta3. Type of data set: protein-complex assay.
In data set [9] the target is T1, Integrin alpha-IIb/beta-3. In words: Inhibition of alphaIIb-beta3 integrin. The class given is protein-complex assay.

T1 sequence (P05106 27-788 limits assumed): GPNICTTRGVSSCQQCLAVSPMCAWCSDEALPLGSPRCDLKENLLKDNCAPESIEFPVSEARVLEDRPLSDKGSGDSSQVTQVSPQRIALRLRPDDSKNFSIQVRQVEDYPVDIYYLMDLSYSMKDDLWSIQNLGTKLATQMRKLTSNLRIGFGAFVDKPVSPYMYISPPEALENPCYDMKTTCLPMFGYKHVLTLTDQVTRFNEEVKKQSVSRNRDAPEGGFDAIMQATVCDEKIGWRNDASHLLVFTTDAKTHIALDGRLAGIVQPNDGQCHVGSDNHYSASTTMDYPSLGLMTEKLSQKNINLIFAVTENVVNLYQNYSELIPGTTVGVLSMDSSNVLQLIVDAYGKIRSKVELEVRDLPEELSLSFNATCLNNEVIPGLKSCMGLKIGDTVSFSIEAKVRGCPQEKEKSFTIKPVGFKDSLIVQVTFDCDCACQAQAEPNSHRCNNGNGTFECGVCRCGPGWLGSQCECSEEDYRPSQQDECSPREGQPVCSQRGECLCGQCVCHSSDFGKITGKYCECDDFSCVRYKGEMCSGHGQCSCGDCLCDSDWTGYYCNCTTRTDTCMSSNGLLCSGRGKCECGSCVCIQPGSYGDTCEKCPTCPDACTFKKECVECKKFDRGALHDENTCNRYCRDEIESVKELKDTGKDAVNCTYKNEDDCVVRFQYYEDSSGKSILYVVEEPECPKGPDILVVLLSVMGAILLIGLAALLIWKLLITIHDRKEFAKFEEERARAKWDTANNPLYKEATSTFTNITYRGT
T1 sequence (P08514 32-887 limits assumed): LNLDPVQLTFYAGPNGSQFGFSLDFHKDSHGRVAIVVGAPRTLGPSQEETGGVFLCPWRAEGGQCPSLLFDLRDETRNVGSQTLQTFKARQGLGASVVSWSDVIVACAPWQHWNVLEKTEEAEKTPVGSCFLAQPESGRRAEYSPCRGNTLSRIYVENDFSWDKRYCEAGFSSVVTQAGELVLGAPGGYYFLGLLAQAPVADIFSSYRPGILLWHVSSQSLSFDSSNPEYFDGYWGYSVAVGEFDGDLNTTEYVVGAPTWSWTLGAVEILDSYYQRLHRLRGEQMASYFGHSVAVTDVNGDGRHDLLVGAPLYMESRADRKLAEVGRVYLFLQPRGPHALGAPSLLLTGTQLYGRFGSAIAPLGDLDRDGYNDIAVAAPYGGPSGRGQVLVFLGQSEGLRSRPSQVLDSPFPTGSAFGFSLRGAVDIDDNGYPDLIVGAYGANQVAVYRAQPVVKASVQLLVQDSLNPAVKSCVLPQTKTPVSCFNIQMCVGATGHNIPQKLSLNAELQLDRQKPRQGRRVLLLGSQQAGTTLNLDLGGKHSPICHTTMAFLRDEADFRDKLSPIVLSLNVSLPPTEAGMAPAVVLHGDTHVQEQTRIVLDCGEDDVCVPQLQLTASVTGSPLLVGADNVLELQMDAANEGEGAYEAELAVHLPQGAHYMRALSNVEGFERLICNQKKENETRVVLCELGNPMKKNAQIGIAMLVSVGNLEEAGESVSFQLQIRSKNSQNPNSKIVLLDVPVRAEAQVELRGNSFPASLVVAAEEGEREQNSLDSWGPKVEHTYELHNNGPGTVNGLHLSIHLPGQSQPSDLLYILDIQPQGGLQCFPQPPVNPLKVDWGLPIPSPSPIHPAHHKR
T1 sequence (P08514 891-1039 limits assumed): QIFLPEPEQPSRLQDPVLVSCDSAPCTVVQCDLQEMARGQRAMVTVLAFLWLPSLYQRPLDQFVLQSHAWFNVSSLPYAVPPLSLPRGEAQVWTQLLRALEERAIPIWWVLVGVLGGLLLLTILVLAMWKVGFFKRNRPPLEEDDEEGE

As for `CC(C)[C@H](NC(=O)[C@H](CC(=O)O)NC(=O)CCCCOc1ccc(C(=N)N)cc1)C(=O)O`, the Retention time in [1] stood at 6.832 min; in [2], 6.52 min; in data set [4], 7.547 min; in data set [5], 7.12 min. Also, the “Log Pmw” value in data set [3] is listed as 1.32. For the same molecule, the “Log IC50” value in data set [6] is listed as -6.64.

On to `N=C(N)c1ccc(OCCCCC(=O)N[C@@H](CC(=O)O)C(=O)N[C@@H](CO)C(=O)O)cc1`, for which the Retention time is reported as 3.238 min in data set [1], 3.199 min in data set [2], 3.324 min in data set [4] and 3.269 min in data set [5]. For the same molecule, the “Log Pmw” value in data set [3] was 0.904.

Turning to `CCCC[C@H](NC(=O)[C@H](CC(=O)O)NC(=O)CCCOc1ccc(C(=N)N)cc1)C(=O)O`, the Retention time in data set [1] was 9.491 min; in data set [2] it was 8.943 min; in data set [4] it was 11.11 min; in data set [5], 10.21 min. The “Log Pmw” value in data set [3] turned out to be 1.58. Moreover, the “Log IC50” value in data set [7] is reported as -7.12.

In the case of `COC(=O)[C@H](Cc1ccc(O)cc1)NC(=O)[C@H](CC(=O)O)NC(=O)CCCCOc1ccc(C(=N)N)cc1`, the Retention time in [1] was determined as 15.56 min; in [2] it was 14.28 min; in [4], 20.18 min; in [5] it was 17.31 min. In data set [3], the “Log Pmw” value was 2.09. For the same molecule, the IC50 in [8] was 4.47 µM.

In the case of `CN(C(=O)[C@H](CC(=O)O)NC(=O)CCCCOc1ccc(C(=N)N)cc1)[C@@H](Cc1ccc(O)cc1)C(=O)O`, the Retention time in data set [1] is 14.24 min; in data set [2] it was 12.91 min; in data set [4] it was 17.87 min; in data set [5] it was 15.67 min. For the same molecule, the “Log Pmw” value in data set [3] was found to be 2. The “Log IC50” value in data set [6] is -6.57.

As to `N=C(N)c1ccc(OCCCCC(=O)N[C@@H](CC(=O)O)C(=O)N[C@@H](Cc2ccc(O)cc2)C(=O)O)cc1`, the Retention time is 10.57 min in data set [1], 9.72 min in data set [2], 12.79 min in data set [4] and 11.47 min in data set [5]. Also, the “Log Pmw” value in [3] worked out at 1.82. Moreover, the “Log IC50” value in data set [6] is given as -6.19.

On to `CC(C)[C@H](NC(=O)[C@H](CC(=O)O)NC(=O)CCCOc1ccc(C(=N)N)cc1)C(=O)O`, for which the Retention time in data set [1] was 5.347 min; in data set [2], 5.207 min; in data set [4] it was 5.898 min; in data set [5], 5.545 min. Moreover, the “Log Pmw” value in [3] was 1.29. Further, half-maximal inhibition in data set [9] (IC50) required 0.11 µM.

`CC(C)C[C@H](NC(=O)[C@H](CC(=O)O)NC(=O)CCCOc1ccc(C(=N)N)cc1)C(=O)O`: the Retention time in data set [1] was 8.25 min; in data set [2], 7.826 min; in data set [4] it was 9.413 min; in data set [5], 8.773 min. Moreover, the “Log Pmw” value in data set [3] amounted to 1.47. In data set [9], this molecule had an IC50 of 0.135 µM.

For the molecule `N=C(N)c1ccc(OCCCC(=O)N[C@@H](CC(=O)O)C(=O)N[C@@H](Cc2ccc(O)cc2)C(=O)O)cc1`, the Retention time in data set [1] came out at 8.79 min; in data set [2], 8.23 min; in data set [4], 10.54 min; in data set [5], 9.51 min. Further, the “Log Pmw” value in [3] was 1.74.

As for `CC[C@H](C)[C@H](NC(=O)[C@H](CC(=O)O)NC(=O)CCCOc1ccc(C(=N)N)cc1)C(=O)O`, the Retention time stood at 8.25 min in data set [1], 7.826 min in data set [2], 9.413 min in data set [4] and 8.773 min in data set [5]. The “Log Pmw” value in [3] stood at 1.47. The “Log IC50” value in data set [6] was -6.85.

In the case of `CC(C)(C)C[C@H](NC(=O)[C@H](CC(=O)O)NC(=O)CCCOc1ccc(C(=N)N)cc1)C(=O)O`, the Retention time in [1] is reported as 12.06 min; in data set [2] it was 11.19 min; in data set [4], 14.11 min; in data set [5], 12.96 min. Further, the “Log Pmw” value in [3] was 1.59. The molecule also had a half-maximal inhibitory concentration (IC50) in data set [9] of 0.229 µM.

On to `CN(C(=O)[C@H](CC(=O)O)NC(=O)CCCOc1ccc(C(=N)N)cc1)[C@@H](Cc1ccc(O)cc1)C(=O)O`, for which the Retention time is listed as 11.82 min in [1], 10.91 min in data set [2], 14.85 min in [4] and 13.01 min in data set [5]. The “Log Pmw” value in [3] is reported as 1.96. In data set [9], this molecule had an IC50 of 0.129 µM.

(Values after ChEMBL document CHEMBL1129599, “Quantitative structure-activity relationship study of fibrinogen inhibitors, [[4-(4-amidinophenoxy)butanoyl]aspartyl]valine (FK633) derivatives, using a novel hydrophobic descriptor” (J Med Chem, 1996).)
